C[n+]1ccn(CCOCCn2cc[n+](C)c2)c1.F[P-](F)(F)(F)(F)F.F[P-](F)(F)(F)(F)F
solubility (mole fraction)
Settings | in acetone | in acetonitrile | in ethanol | in methanol | in water
283 K | 0.0599 | 0.0726 | 3.2e-05 | 0.000171 | 0.000118
288 K | 0.061 | 0.0749 | 3.8e-05 | 0.000234 | 0.000157
293 K | 0.0621 | 0.0775 | 4.7e-05 | 0.000298 | 0.00021
298 K | 0.0631 | 0.0802 | 5.6e-05 | 0.000376 | 0.000271
303 K | 0.0641 | 0.0834 | 6.9e-05 | 0.000464 | 0.000345

Source: BigSolDB 2.1
